Experimental data from patent US5607944A, “Bicyclic heterocyclic compounds, pharmaceutical preparations containing these compounds and processes for their preparations” (Karl Thomae GmbH, priority 1993, dated 1997).
Where a name gives a salt, the structure may show the parent alone.

Columns and labels:
platelet aggregation = assay: Antithrombotic activity: inhibition of collagen-induced platelet aggregation (Born and Cross) in platelet-rich plasma of healthy volunteers; type: cell-based; details: Homo sapiens, 10 minutes preincubation at 37° C.
Description: 2. Antithrombotic activity Method The thrombocyte aggregation is measured using the method of Born and Cross (J. Physiol. 170:397 (1964)) in platelet-rich plasma taken from healthy volunteers. To inhibit coagulation, the blood is mixed with 3.14% sodium citrate in a volume ratio of 1:10. Collagen-induced aggregation The pattern of the decrease in optical density of the platelet suspension is photometrically measured and recorded after the addition of the aggregation-triggering substance. The rate of aggregation is determined from the angle of inclination of the density curve. The point on the curve where there is maximum light transmittance is used to calculate the optical density. The concentration of collagen used is as small as possible but sufficient to produce an irreversible reaction curve. Standard commercial collagen produced by Hormonchemie of Munich is used. Before the addition of the collagen the plasma is incubated for 10 minutes at 37° C. with the substance. From the measurements obtained, the EC50 is determined graphically as the concentration giving a 50% change in the optical density in terms of the inhibition of aggregation.

human thrombocytes = assay: Inhibition of binding of ^3 H-BIBU 52 to human thrombocytes (competitive binding); details: human platelet-rich plasma diluted 1:10; 5 nM ^3 H-BIBU 52; 20 minutes, ambient temperature; read-out: Competitive binding of ^3 H-BIBU 52/test substance to human thrombocytes IC50
Description: 1. Inhibition of binding of ^3 H-BIBU 52 to human thrombocytes:
A suspension of human thrombocytes in plasma is incubated with ^3 H-BIBU 52 [=(3S,5S)-5-[(4'-amidino-4-biphenylyl)oxymethyl]-3-[(carboxyl)methyl]-2pyrrolidinone[3-^3 H-4-biphenylyl]] (see German Patent Application P 42 14 245.8 of the same applicant, dated 30.04.1992, internal reference: Case 5/1093-FL), which replaces the ^125 I fibrinogen ligand known from the literature, and various concentrations of the substance to be tested. The free and bound ligand are separated by centrifuging and quantified by scintillation counting. The inhibition of ^3 H-BIBU 52 binding by the test substance is determined from the measurements obtained.
In order to do this, donor blood is taken from an anticubital vein and anticoagulated with trisodium citrate (final concentration 13 mM). The blood is centrifuged for 10 minutes at 170×g and the supernatant platelet-rich plasma (PRP) is removed. The remaining blood is vigorously centrifuged once more in order to obtain plasma. The PRP is diluted 1:10 with autologous plasma. 750 μl are incubated with 50 μl of physiological saline solution, 100 μl of test substance solution, 50 μl of ^14 C-sucrose (3,700 Bq) and 50 μl of ^3 H-BIBU 52 (final concentration: 5 nM) at ambient temperature for 20 minutes. In order to measure the non-specific binding, 5 μl of BIBU 52 (final concentration: 30 μM) are used instead of the test substance. The samples are centrifuged for 20 seconds at 10,000× g and the supernatant is poured off. 100 μl thereof are measured in order to determine the free ligand. The pellet is dissolved in 500 μl of 0.2N NaOH, 450 μl are mixed with 2 ml of scintillator and 25 μl of 5N HCl and measured. The residual plasma remaining in the pellet is determined from the ^14 C-content and the bound ligand is determined from the ^3 H-measurement. After the non-specific binding has been deducted, the pellet activity is plotted against the concentration of the test substance and the concentration for a 50% inhibition of binding is determined.

mice = assay: Tolerance after intravenous administration of 30 mg/kg to three mice; type: in vivo; details: 30 mg/kg i.v., three mice in each case

**Q.** For O=C(O)CC1CCN(C(=O)c2ccc(-c3nc4c(s3)CNCC4)cc2)CC1 [2(1), 2-[4-[4-(carboxymethyl)-piperidinocarbonyl]-phenyl]-4,5,6,7-tetrahydro-thiazolo[5,4-c]pyridine-hydrochloride], which EC50 (platelet aggregation) is on record?
**A.** 2600 nM

**Q.** And the IC50 (human thrombocytes)?
**A.** 210 nM

**Q.** COC(=O)[C@H]1CC[C@H](NC(=O)c2ccc(-c3nc4c(s3)CNCC4)c(C)c2)CC1 [2(4), 2-[4-[(trans-4-methoxycarbonyl-cyclohexyl)-aminocarbonyl]-2-methyl-phenyl]-4,5,6,7-tetrahydro-thiazolo[5,4-c]pyridine-dihydrochloride] was tested. Which EC50 (platelet aggregation) did it give?
**A.** 1440 nM

**Q.** And the IC50 (human thrombocytes)?
**A.** 450 nM

**Q.** O=C(N[C@H]1CC[C@H](C(=O)O)CC1)N1CCC(c2nc3c(s2)CNCC3)CC1 [3(5), 2-[1-[(trans-4-carboxy-cyclohexyl)-aminocarbonyl]-piperid-4-yl]-4,5,6,7-tetrahydro-thiazolo[5,4-c]pyridine] was tested. Which EC50 (platelet aggregation) did it give?
**A.** 100 nM

**Q.** And the IC50 (human thrombocytes)?
**A.** 31 nM

**Q.** For O=C(N[C@H]1CC[C@H](C(=O)O)CC1)N1CCC(c2nc3c(s2)CCNCC3)CC1 [3(6), 2-[1-[(trans-4-carboxy-cyclohexyl)-aminocarbonyl]-piperid-4-yl]-4,5,7,8-tetrahydro-6H-thiazolo[4,5-d]azepine], which EC50 (platelet aggregation) is on record?
**A.** 100 nM

**Q.** And the IC50 (human thrombocytes)?
**A.** 42 nM

**Q.** Which EC50 (platelet aggregation) does the source give for O=C(N[C@H]1CC[C@H](C(=O)O)CC1)c1ccc(-c2nc3cnccc3[nH]2)cc1 [3(8), 2-[4-[(trans-4-carboxy-cyclohexyl)-aminocarbonyl]-phenyl]-1H-imidazo[4,5-c]pyridine] here?
**A.** 4200 nM

**Q.** What about the IC50 (human thrombocytes) of the same molecule?
**A.** 2100 nM

**Q.** Which results are given for CN1CCc2nc(C3CCN(C(=O)N[C@H]4CC[C@H](C(=O)O)CC4)CC3)sc2CC1 [3(12), 2-[1-[(trans-4-carboxy-cyclohexyl)-aminocarbonyl]-piperid-4-yl]-6-methyl-4,5,7,8-tetrahydro-thiazolo[4,5-d]azepine]?
**A.** EC50 (platelet aggregation): 2900 nM; IC50 (human thrombocytes): 2000 nM

**Q.** Which results are given for O=C(N[C@H]1CC[C@H](C(=O)O)CC1)c1ccc(-c2nc3c(s2)CCNCC3)cc1.O=C(O)C(F)(F)F [4(1), 2-[4-[(trans-4-carboxy-cyclohexyl)-aminocarbonyl]-phenyl]-4,5,7,8-tetrahydro-6H-thiazolo[4,5-d]azepine-trifluoroacetate]?
**A.** EC50 (platelet aggregation): 680 nM; IC50 (human thrombocytes): 75 nM; death of animals after intravenous administration (mice): no animals died

**Q.** Which EC50 (platelet aggregation) does the source give for Cc1cc(C(=O)N[C@H]2CC[C@H](C(=O)O)CC2)ccc1-c1nc2c(s1)CNCC2 [4(3), 2-[4-[(trans-4-carboxy-cyclohexyl)-aminocarbonyl]-2-methyl-phenyl]-4,5,6,7-tetrahydro-thiazolo[5,4-c]pyridine-trifluoraocetate] here?
**A.** 220 nM

**Q.** And the IC50 (human thrombocytes)?
**A.** 24 nM

**Q.** What does the source list for O=C(O)[C@H]1CC[C@H](NC(=O)[C@H]2CC[C@H](c3nc4c(s3)CCNCC4)CC2)CC1 [4(4), 2-[trans-4-[(trans-4-carboxy-cyclohexyl)-aminocarbonyl]-cyclohexyl]-4,5,7,8-tetrahydro-6H-thiazolo[4,5-d]azepine-trifluoroacetate]?
**A.** EC50 (platelet aggregation): 110 nM; IC50 (human thrombocytes): 120 nM

**Q.** Which EC50 (platelet aggregation) does the source give for COC(=O)[C@H]1CC[C@H](NC(=O)N2CCC(c3nc4c(s3)CCNCC4)CC2)CC1 [7(1), 2-[1-[(trans-4-methoxycarbonyl-cyclohexyl)-aminocarbonyl]-piperid-4-yl]-4,5,7,8-tetrahydro-6H-thiazolo[4,5-d]azepine-hydrochloride] here?
**A.** 1400 nM

**Q.** And the IC50 (human thrombocytes)?
**A.** 1400 nM

**Q.** Which results are given for CCOC(=O)[C@H]1CC[C@H](NC(=O)N2CCC(c3nc4c(s3)CCNCC4)CC2)CC1 [7(2), 2-[1-[(trans-4-ethoxycarbonyl-cyclohexyl)-aminocarbonyl]-piperid-4-yl]-4,5,7,8-tetrahydro-6H-thiazolo[4,5-d]azepine-hydrochloride]?
**A.** EC50 (platelet aggregation): 2600 nM; IC50 (human thrombocytes): 1300 nM

**Q.** Which EC50 (platelet aggregation) does the source give for CC(C)OC(=O)[C@H]1CC[C@H](NC(=O)N2CCC(c3nc4c(s3)CCNCC4)CC2)CC1 [7(3), 2-[1-[(trans-4-isopropoxycarbonyl-cyclohexyl)-aminocarbonyl]-piperid-4-yl]-4,5,7,8-tetrahydro-6H-thiazolo[4,5-d]azepine-hydrochloride] here?
**A.** 1300 nM

**Q.** And the IC50 (human thrombocytes)?
**A.** 1500 nM

**Q.** Which results are given for O=C(N[C@H]1CC[C@H](C(=O)O)CC1)c1ccc(-c2nc3c(s2)CNCC3)cc1.O=C(O)C(F)(F)F [Example 4, 2-[4-[(trans-4-Carboxy-cyclohexyl)-aminocarbonyl]-phenyl]-4,5,6,7-tetrahydro-thiazolo[5,4-c]pyridine-trifluoroacetate]?
**A.** EC50 (platelet aggregation): 410 nM; IC50 (human thrombocytes): 96 nM; death of animals after intravenous administration (mice): no animals died

**Q.** For CC(C)COC(=O)[C@H]1CC[C@H](NC(=O)N2CCC(c3nc4c(s3)CCNCC4)CC2)CC1 [Example 7, 2-[1-[(trans-4-Isobutyloxycarbonyl-cyclohexyl)-aminocarbonyl]-piperid-4-yl]-4,5,7,8-tetrahydro-6H-thiazolo[4,5-d]azepine-hydrochloride], which EC50 (platelet aggregation) is on record?
**A.** 660 nM

**Q.** What about the IC50 (human thrombocytes) of the same molecule?
**A.** 1600 nM
